Laboratory results as given in paper PMC11187126, “Structure and dynamics of the pyroglutamylated RF-amide peptide QRFP receptor GPR103” (Nature Communications, 2024).
Like-named read-outs stand apart in the source and are kept apart here. No end group written: not given here.

Target: T1, wild-type GPR103 (Homo sapiens, UniProt Q96P65)
T1 construct: we used human full-length QRFPR-encoding plasmids; expressed in transfected cells; host or cells: HEK293 cells, pCAGGS vector
T1 sequence (Q96P65 1-431): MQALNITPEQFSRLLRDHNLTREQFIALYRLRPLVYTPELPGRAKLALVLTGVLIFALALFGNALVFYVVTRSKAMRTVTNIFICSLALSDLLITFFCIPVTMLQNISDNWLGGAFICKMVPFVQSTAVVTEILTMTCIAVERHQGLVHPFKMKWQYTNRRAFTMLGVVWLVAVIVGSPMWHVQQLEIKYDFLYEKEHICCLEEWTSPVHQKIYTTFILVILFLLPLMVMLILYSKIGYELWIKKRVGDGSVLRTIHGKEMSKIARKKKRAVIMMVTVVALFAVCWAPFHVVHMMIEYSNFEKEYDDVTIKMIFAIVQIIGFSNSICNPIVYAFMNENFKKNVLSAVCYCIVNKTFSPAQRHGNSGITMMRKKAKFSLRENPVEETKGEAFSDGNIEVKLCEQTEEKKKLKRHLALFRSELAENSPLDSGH
Assay: TGFα shedding assay, HEK293 cells; WT titrated to lower expression (1:1 to 1:50)
Assay type: cell-based
Description: For the TGFα shedding assay and the flow cytometry analysis, we used human full-length QRFPR-encoding plasmids. Specifically, GPR103 was N-terminally modified with an HA signal sequence followed by a FLAG epitope and then a flexible linker ([…]; the FLAG epitope is underlined) and inserted into the pCAGGS vector. Plasmid encoding GPR103 mutants were generated using Quickchange Site-Directed Mutagensis kit (Agilent).
The TGFα shedding assay was performed as described previously with minor modifications. Plasmid transfection was performed in a 6-well plate with a mixture of 500 ng (per well in a 6-well plate) AP-TGFα-encoding plasmid and 200 ng GPR103-encoding plasmid. After 1-day culture, the transfected cells were harvested by trypsinization, pelleted by centrifugation at 190 × g for 5 min, and washed once with 5 mM HEPES (pH 7.4)-containing Hank’s Balanced Salt Solution (HBSS). After centrifugation, the cells were resuspended in 8 mL of the HEPES-containing HBSS. The cell suspension was seeded in a 96-well culture plate (cell plate) at a volume of 90 μL (per well hereafter) and incubated in a 37 °C incubator with 5% CO2 for 30 min. […] After spinning the cell plates at 190 × g for 2 min, 80 μL of conditioned media was transferred to an empty 96-well plate (conditioned media (CM) plate). Then, 80 μL of AP reaction solution (10 mM p-nitrophenylphosphate (p-NPP), 120 mM Tris-HCl (pH 9.5), 40 mM NaCl, and 10 mM MgCl2) was dispensed into the cell plates and the CM plates. Absorbance at 405 nm of the plates was measured using a microplate reader (SpectraMax 340 PC384, Molecular Devices) before and after 1-h incubation at room temperature. Ligand-induced AP-TGFα release was calculated by subtracting spontaneous AP-TGFα release signal from ligand-induced AP-TGFα release signal. The AP-TGFα release signals were fitted to a four-parameter sigmoidal concentration–response curve, using the Prism 10 software (GraphPad Prism). For each replicate experiment, the pEC50 parameter (negative logarithmic values of EC50 values) of the individual GPR103 mutants were normalized to that of the wild-type GPR103 performed in parallel, and resulting ∆pEC50 values were used to denote ligand response activity of the mutants. […]
Exp. le vel: WT (1:5 0)Exp. le vel: WT (1:5 0)Exp. le vel: WT (1:5 0)Exp. le vel: WT (1:2 0)Exp. le vel: WT (1:2 0)Exp. le vel: WT (1:1 0) […]
L1 4N - t e r mA F2 5N - t e r mA I 2 6N - t e r mA Y 2 9N - t e r mA C 9 82 .5 7A T10 22 .6 1A Exp . l eve l: WT (1 :5)Exp . l evel : >WT (1 :1)Exp. le vel: WT (1:2 0)Exp. le vel: WT (1:2 0)Exp. le vel: WT (1:5 0)Exp . l eve l: WT (1 :1) […]
Exp. le vel: WT (1:1 0)Exp. le vel: WT (1:2 0) C 1 1 83 .2 5AExp. le vel: WT (1:5 0)Exp. le vel: WT (1:5 0)Exp. le vel: WT (1:2 0)Exp . l eve l: WT (1 :5) […]
Exp. le vel: WT (1:5 0)Exp. le vel: WT (1:1 0)Exp. le vel: WT (1:5 0) E203ECL2AExp . l evel : >WT (1 :1)Exp. le vel: WT (1:5 0)Exp. le vel: WT (1:5 0) […]
Exp . l eve l: WT (1 :1) F28Exp. le vel: WT (1:5 0) C 2 8 56 .4 7AExp. le vel: WT (1:2 0) WExp. le vel: WT (1:2 0) F28Exp. le vel: WT (1:5 0)Exp . l evel : >WT (1 :1) […]
Exp. le vel: WT (1:5 0)Exp. le vel: WT (1:5 0) C 3 2 77 .4 8AExp . l eve l: WT (1 :5)Exp . l evel : >WT (1 :1)Exp . l evel : >WT (1 :1) […]
Suppl eme nt ary Figure 1 | Mutational analysis of GPR103. […]
mutants. Data are presented as mean values ± SEM, normally n=3-5; dots), each performed in triplicate. b-d Cell-surface expression (b) and QRFP26-in-duced activation of GPR103 (c, d) were analyzed by the flow cytometry and the TGFα shedding assay, respectively. From the concentration–response curves (a), Emax (c) and ΔpEC50 (d) values relative to the wild type were calculated. Colors in the mutant bars indicate an expression level matching to that of titrated wild type. Statistical analyses were performed using the ordinary one-way ANOVA followed by Dunnett tests with the expression-matched […]

TSGPLGNLAEELNGYSRKKGGFSFRF-NH2 [QRFP26]
Emax (HEK293, WT (1:2), mean, read-out: Emax): 102%
Emax (HEK293, WT (1:2), n = 5, read-out: Emax): 102 ± 1.4%
Emax (HEK293, WT (1:5), mean, read-out: Emax): 98%
Emax (HEK293, WT (1:10), mean, read-out: Emax): 85.2%
Emax (HEK293, WT (1:10), n = 5, read-out: Emax): 86.5 ± 1.5%
Emax (HEK293, WT (1:20), mean, read-out: Emax): 68.7%
Emax (HEK293, WT (1:20), n = 5, read-out: Emax): 69.6 ± 1.9%
Emax (HEK293, WT (1:50), mean, read-out: Emax): 40%
Emax (HEK293, WT (1:50), n = 3, read-out: Emax): 38.9 ± 2.7%
EC50 (WT (1:1), n = 5): 0.00513 µM
Emax (WT (1:2), Exp. #1): 99.44 % WT
Emax (WT (1:2), Exp. #2): 98.59 % WT
Emax (WT (1:2), Exp. #3): 107.25 % WT
Emax (WT (1:2), Exp. #4): 101.53 % WT
Emax (WT (1:2), Exp. #5): 103.42 % WT
EC50 (WT (1:2), n = 5): 0.00661 µM
Emax (WT (1:5), Exp. #1): 95.01 % WT
Emax (WT (1:5), Exp. #2): 93.02 % WT
Emax (WT (1:5), Exp. #3): 103.20 % WT
Emax (WT (1:5), Exp. #4): 97.64 % WT
Emax (WT (1:5), Exp. #5): 100.97 % WT
EC50 (WT (1:5), n = 5): 0.0126 µM
Emax (WT (1:10), Exp. #1): 87.43 % WT
Emax (WT (1:10), Exp. #2): 82.73 % WT
Emax (WT (1:10), Exp. #3): 90.71 % WT
Emax (WT (1:10), Exp. #4): 84.24 % WT
Emax (WT (1:10), Exp. #5): 81.03 % WT
EC50 (WT (1:10), n = 5): 0.0151 µM
Emax (WT (1:20), Exp. #1): 70.65 % WT
Emax (WT (1:20), Exp. #2): 70.10 % WT
Emax (WT (1:20), Exp. #3): 74.01 % WT
EC50 (WT (1:20), n = 5): 0.0214 µM
Emax (WT (1:50), Exp. #3): 46.11 % WT
Emax (WT (1:50), Exp. #4): 34.55 % WT
Emax (WT (1:50), Exp. #5): 39.32 % WT
EC50 (WT (1:50), n = 3): 0.0537 µM
